# Assay results: patent EP2250163B1, “HEPATITIS C VIRUS INHIBITORS” (Bristol-Myers Squibb Company, priority 2008, dated 2009)
# Tested on: HCV 1b-377-neo replicon cells
# Assay: HCV replicon assay, wild-type cells
# Type: cell-based
# Conditions: Hepatitis C virus, against the HCV 1b genotype, read-out: EC50 Range
# Description: An HCV Replion assay was utilized in the present disclosure, and was prepared, conducted and validated as described in commonly owned PCT/US2006/022197 and in O'Boyle et al. Antimicrob Agents Chemother. 2005 Apr;49(4):1346-53.
# HCV 1b-377-neo replicon cells were used to test the currently described compound series as well as cells resistant to compound A due to a Y2065H mutation in NS5A (described in application PCT/US2006/022197). The compounds tested were determined to have more than 10-fold less inhibitory activity on cells resistant to compound A than wild-type cells indicating a related mechanism of action between the two compound series. Thus, the compounds of the present disclosure can be effective to inhibit the function of the HCV NS5A protein and are understood to be as effective in combinations as previously described in application PCT/US2006/022197 and commonly owned WO/04014852. Further, the compounds of the present disclosure can be effective against the HCV 1b genotype. It should also be understood that the compounds of the present disclosure can inhibit multiple genotypes of HCV. […] In one embodiment compounds of the present disclosure are active against the 1a, 1b, 2a, 2b, 3a, 4a, and 5a genotypes.
row,Compound,EC50
1,"COCC[C@H](NC(=O)OC)C(=O)N[C@H](c1nc(-c2ccc(-c3ccc(-c4c[nH]c([C@@H]5CCCN5C(=O)[C@H](CCOC)NC(=O)OC)n4)cc3)cc2)c[nH]1)C(C)C [Example R20, methyl ((1S)-3-methoxy-1-(((2S)-2-(4-(4'-(2-((1S)-1-((N-(methoxycarbonyl)-O-methyl-L-homoseryl)amino)-2-methylpropyl)-1H-imidazol-4-yl)-4-biphenylyl)-1H-imidazol-2-yl)-1-pyrrolidinyl)carbonyl)propyl)carbamate]",0.001 to 0.999 nM
2,"COC(=O)N[C@H](C(=O)Nc1ncc(-c2ccc(-c3ccc(-c4cnc([C@@H]5CCCN5C(=O)[C@@H](NC(=O)OC)C(C)C)[nH]4)cc3)cc2)[nH]1)C(C)C [Example R33, (S)-2-methoxycarbonylamino-N-(5-(4'-(2-((S)-1-((S)-2-methoxycarbonylamino-3-methylbutanoyl)pyrrolidin-2-yl)-1H-imidazol-5-yl)biphenyl-4-yl)-1H-imidazol-2-yl)-3-methylbutanamide]",1 to 99 nM
